The record followed here is PubChem BioAssay (NCI).

The structures appear in SMILES notation.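 Tested at 5 concentrations; 48 h exposure; 96-well plates; endpoints linearly interpolated, else capped at highest concentration. GI50 marks 50% less growth. TGI: concentration producing complete growth inhibition.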

Common to all, as to test: inhibition of tumour cell growth, NCI panel, 48 h
Assay [1] concerns IGROV1 ovarian.
Assay [2] concerns NCI-H226 lung.
The test system of assay [3] is LOX IMVI melanoma.
The subject of assay [4] is SK-MEL-28 melanoma.
For assay [5], the system named is HCT-15 colon.
The test system of assay [6] is HT29 colon.
Assay [7] deals with UACC-257 melanoma.
The test system of assay [8] is MCF7 breast.
Assay [9] relates to SNB-19 CNS.
The subject of assay [10] is MDA-MB-435.

For `COc1ccc(-c2c3c(N)c4c(nc3nc3c2c(C)nn3-c2ccccc2)CCCC4)cc1`, the GI50 in assay [1] is 4.26 µM; in assay [2] it was 19.6 µM; in assay [3] it was 12 µM; in [4], 6.75 µM; in assay [5], 3.08 µM; in assay [6], 2.68 µM. In addition, the GI50 in assay [7] is 2.43 µM; in assay [8], 2.57 µM; in assay [9], 10.8 µM; in [10], 3.83 µM. For the same compound, the TGI in assay [1] is 18.6 µM; in assay [2], 52.5 µM; in assay [3], 27 µM; in assay [4] it was 24.3 µM; in [5], 10.9 µM; in [6] it was 8.8 µM. Also, the TGI worked out at 9.38 µM in assay [7], 8.88 µM in assay [8], 26.8 µM in [9] and 16.4 µM in [10].

With `COc1c(CC=C(C)C)c(O)c(C(CC(C)C)c2c(O)c(CC=C(C)C)c(O)c(C(C)=O)c2O)c(O)c1C(C)=O` (stereo not drawn), the TGI in assay [1] was 13.4 µM; in assay [2], 10.6 µM; in [3], 3.59 µM; in assay [4], 5.21 µM; in assay [5], 2.62 µM; in assay [6], 8.63 µM. For the same compound, the TGI in assay [7] was 5.11 µM; in assay [8] it was 4.84 µM; in assay [9] it was 15.2 µM; in assay [10], 6.47 µM.

`NCc1ccc(-c2nc(-c3ccc(Cl)c(O)c3)c(-c3ccncc3)[nH]2)cc1`: the GI50 in [1] was above 25 µM; in assay [2] it was above 25 µM; in [3] it was 16.7 µM; in assay [4], 5.3 µM; in assay [5], above 25 µM; in assay [6] it was above 25 µM. Besides, the GI50 is 3.63 µM in assay [7], above 25 µM in [8], above 25 µM in [9] and 5.18 µM in assay [10]. Moreover, the TGI in assay [1], in assay [2], in assay [3], in assay [4], in [5] and in [6] was above 25 µM each time. The TGI in assay [7] is 17.4 µM; in assay [8], above 25 µM; in [9], above 25 µM; in [10], above 25 µM.

Regarding `O=S(=O)(NCCCNc1cc(-c2cn(-c3ccccc3)nc2-c2cccc(O)c2)ccn1)c1ccc(F)cc1`, the GI50 in assay [1] is 4.29 µM; in [2] it was 4.49 µM; in [3] it was 3 µM; in assay [4], 2.58 µM; in [5], 2.45 µM; in [6], 2.26 µM. Also, the GI50 in [7] is 2.92 µM; in assay [8], 3.26 µM; in assay [9], 4.67 µM; in assay [10], 3.36 µM. Moreover, the TGI in [1] amounted to 33.5 µM; in [2], 21.6 µM; in assay [3], 10.7 µM; in assay [4] it was 8.27 µM; in assay [5], 7.9 µM; in [6] it was 6.5 µM. Moreover, the TGI in assay [7] worked out at 7.26 µM; in [8], 12.4 µM; in [9] it was 52.3 µM; in assay [10], 12.9 µM.

Turning to `CC(=O)N(O)c1ccc(/C=C/c2ccccc2)cc1`, the GI50 was 1.14 µM in [1]; 0.0656 µM in assay [2]; 1.48 µM in assay [3]; 9.39 µM in assay [4]; 2.9 µM in assay [5]; 3.39 µM in assay [6]. The GI50 in assay [7] is 1.23 µM; in assay [8] it was 0.548 µM; in [9] it was 1.88 µM; in [10], 3.39 µM. Besides, the TGI in [1] is 7.41 µM; in assay [2] it was 0.386 µM; in assay [3], 14.6 µM; in assay [4], above 100 µM; in [5] it was above 100 µM; in assay [6] it was 53.2 µM. Besides, the TGI in [7] was 5.17 µM; in assay [8], above 100 µM; in assay [9] it was above 100 µM; in assay [10], above 100 µM.

Take `CC(C)N(Cc1ccc(F)cc1)c1ccc(CO)c(Cl)c1`: the GI50 in assay [1] is 0.0479 µM; in assay [2], 0.054 µM; in [3], 8.35 µM; in assay [4] it was 14 µM; in assay [5] it was 5.23 µM; in assay [6], 1.81 µM. The GI50 in assay [7] is 0.0837 µM; in [8], 0.181 µM; in [9] it was 12.2 µM; in [10], 15 µM. The TGI in assay [1] stood at 0.266 µM; in assay [2], 0.179 µM; in assay [3], 21.6 µM; in assay [4], 27.2 µM; in [5] it was 20.7 µM; in assay [6], 14.1 µM. For the same compound, the TGI was 0.316 µM in assay [7], 13.2 µM in assay [8], 25.3 µM in assay [9] and 29.5 µM in assay [10].

In the case of `CC(C)(C)c1cc(C(=O)O)c2c(c1)C(=O)OC2(c1ccccc1)c1ccccc1C(=O)O` (stereo not drawn), the GI50 in [1], in assay [8] and in [10] was above 100 µM in each case. In addition, the TGI in assay [1], in assay [2], in assay [3], in assay [4], in assay [5] and in assay [6] was above 100 µM in each case. Besides, the TGI in assay [7], in assay [8], in assay [9] and in [10] was above 100 µM each time.
